Test results as given in PMC6682008 (ACS Omega, 2019).

Target: hSPR (human sepiapterin reductase) (Homo sapiens, UniProt P35270)
Assay: colorimetric sepiapterin reduction, absorbance decrease at […] nm
Format: biochemical

hSPR (human sepiapterin reductase), sequence (P35270 whole entry): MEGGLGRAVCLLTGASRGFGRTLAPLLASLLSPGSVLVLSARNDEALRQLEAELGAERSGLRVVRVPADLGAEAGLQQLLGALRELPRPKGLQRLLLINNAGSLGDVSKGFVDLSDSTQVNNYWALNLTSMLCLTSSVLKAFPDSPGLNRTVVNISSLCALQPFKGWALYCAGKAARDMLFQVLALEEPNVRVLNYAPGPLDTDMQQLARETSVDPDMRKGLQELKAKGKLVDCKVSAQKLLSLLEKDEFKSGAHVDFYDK

| SMILES | IC50 [µM] |
| --- | --- |
| COc1ccc(/C=C/C(=O)Nc2ccccc2C(=O)O)cc1OC [tranilast, N-3′,4′-dimethoxycinnamoyl-anthranilic acid] | 5.89 |
| C[C@H](Cc1ccc(O)c(O)c1)[C@@H](C)Cc1ccc(O)c(O)c1 [nordihydroguaiaretic acid] | 8.26 |
| CC(=O)NCCc1c[nH]c2ccc(O)cc12 [N-acetylserotonin, reference compound] | 11.6 |
